In brackets after ≈: the same amount, converted by molar mass. Read-outs that look alike come from different tables or passages of the source.
How the values were obtained:
[1] = Solution-mediated transformation studies (relative physical stability of Form A and Form B versus temperature); type: physicochemical
Experimental: Solution-mediated transformation studies were conducted to establish the relative physical stability of Form A and Form B versus temperature. Excess solid was suspended in a slurry using various solvents, including mixtures of benzyl benzoate and castor oil. After equilibration times of 1 day to two weeks, the excess solid was filtered and analyzed by powder x-ray diffraction to determine the crystalline form.

[2] = Solubility of crystalline HPC in organic solvents; type: physicochemical; conditions: organic solvent or mixture, 25° C.

relative physical stability ([1]; above 35° C.)	solubility ([2]; ethanol, read-out: solubility in ethanol)	solubility ([2]; ethyl acetate, read-out: solubility in ethyl acetate)	solubility ([2]; isopropanol, read-out: solubility in isopropanol)	solubility ([2]; methanol, read-out: solubility in methanol)	relative physical stability ([1]; below 27° C.)	relative physical stability ([1]; below room temperature, additional studies)	physical stability on storage ([1]; storage temperatures of room temperature (20-25° C.) or below (refrigeration))	SMILES
more stable (less soluble)	~118 mg/mL (≈ 275 mM)	~419 mg/mL (≈ 978 mM)	~91 mg/mL (≈ 212 mM)	~142 mg/mL (≈ 331 mM)	–	–	–	CCCCCC(=O)O[C@]1(C(C)=O)CC[C@H]2[C@@H]3CCC4=CC(=O)CC[C@]4(C)[C@H]3CC[C@@]21C [Form A, 17-α-hydroxyprogesterone caproate]
–	–	–	–	–	more stable (less soluble)	likely to be more stable	physically stable polymorph	CCCCCC(=O)O[C@]1(C(C)=O)CC[C@H]2[C@@H]3CCC4=CC(=O)CC[C@]4(C)[C@H]3CC[C@@]21C [Form B, 17-α-hydroxyprogesterone caproate]
